Like-named read-outs stand apart in the source and are kept apart here.
Columns and labels:
[1] = oral; cited from earlier work
[2] = test system: Female CD-1 mice treated with 3-nitropropionic acid (3-NP); experiment: Protective effects in 3-NP mouse model of mitochondrial dysfunction (survival, weight loss); assay type: in vivo; conditions: for Survival at d 8: 3-NP 65 mg/Kg ip daily, survivors/10 mice
Procedure: A combination of uridine triacetate and ketoleucine was assessed in a model of progressive and lethal impairment of mitochondrial oxidative phosphorylation. 3-nitropropionic acid (3-NP), an irreversible inhibitor of Complex II of the mitochondrial electron transport chain. Daily administration of 3-NP results in progressive loss of mitochondrial reserve energy capacity, until the threshold for baseline energy requirements for survival is breached, resulting in mortality from both heart failure and central nervous system dysfunction.
In this study, uridine triacetate was administered as either by gavage as an oral bolus, or by incorporation into rodent chow at a concentration of 4% w/w. Similarly, ketoleucine (in the form of its sodium salt; NaKL) was administered in different groups by gavage or by dissolving it in drinking water. Sodium chloride (NaCl) was used as a control substance in some groups to account for the sodium load from the ketoleucine salt. • Chemical(s): Hydroxypropyl methyl cellulose (HPMC), cat #H3785, Lot #SLBS5701, CAS 9004-65-3, SIGMA-Aldrich. Uridine Triacetate for gavage (UTA), item, D000156, Lot #Q000001095, Almac Sciences, Uridine Triacetate in the diet (UTA), item & Lot #, D000302, 2148-070, Project #1314A0071A, recovery of material from R-104 Lot Q000003578, Almac Sciences, Sodium Chloride (NaCl), VWR, Cat #BDH9286-500G, Lot #1976C500, CAS 7647-14-5, 4-methyl-2-oxovaleric acid sodium salt (ketoLeucine: NaKL), cat #M326425, Lot #1-AWT-36-1, CAS4502-00-5, Toronto Research Chemicals, and 3-nitropropionic acid (3NP), cat #N5636, Lot #11101616, CAS 504-88-1, SIGMA-Aldrich. • Vehicle(s): UTA, NaKL, or NaCl in suspensions was prepared in 0.75% HPMC. NaCL or NaKL in the drinking water were prepared by dissolving in water. 3-NP solutions were prepared in water. • Dosing Formulation(s): Preparation: UTA was suspended in 0.75% HPMC at 50 mg/ml. NaKL will be suspended in 0.75% HPMC at 100 mg/ml, or included in the drinking water at 15.8 mg/ml. […]

[3] = oral, humans; cited from earlier work
[4] = oral, mice; cited from earlier work

Compound	bioavailability [1]	Survival at d 8 ([2]; Group 1: 4% UTA diet, NaCl in drinking water, no gavage)	Survival at d 8 ([2]; Group 3: normal chow, regular water, UTA 1000 mg/Kg and NaCl by gavage 7 AM and 4 PM)	Protection against weight loss, comparison between groups ([2]; bolus (gavage) uridine triacetate with or without NaKL (Groups 3-5) versus 4% (w/w) uridine triacetate in chow (Groups 1 and 2))	bioavailability [3]	bioavailability [4]
CC(=O)OC[C@H]1O[C@@H](n2ccc(=O)[nH]c2=O)[C@H](OC(C)=O)[C@@H]1OC(C)=O [UTA, 2′,3′,5,-tri-O-acetyluridine]	approximately 50%	0/10	1/10	better protection against weight loss	–	–
O=c1ccn([C@@H]2O[C@H](CO)[C@@H](O)[C@H]2O)c(=O)[nH]1 [uridine]	–	–	–	–	approximately 7%	approximately 7%

Reference: patent US12703718B2, “Compositions and compounds for co-delivery of uridine and ketoleucine” (PHARMA CINQ, LLC, priority 2021, dated 2026)
